Measured values published in patent US11191717B2, “Topical therapy for the treatment of skin malignancies using nanoparticles of taxanes” (DFB SORIA, LLC, priority 2017, dated 2021).
Like-named read-outs stand apart in the source and are kept apart here. Values belong to the compound of their own block, whether it stands above or below them.

Experiments:
[1] = test system: intact human cadaver skin; assay: In vitro skin penetration diffusion study (Franz diffusion cell); assay type: in vitro ADME; conditions: results in Table 14 (formulas F1 through F13)
Method: The skin was centered and the edges flattened out. […] Additional receptor fluid was added where necessary.
Cells were left uncapped during the experiment.

[2] = Observations of paclitaxel nanoparticle crystals in various substances and solutions of substances (light microscopy); assay type: physicochemical
[3] = Particle size analysis of paclitaxel nanoparticles lots (ACCUSIZER 780); assay type: physicochemical; conditions: nanoparticle API in 0.1% w/w SDS solution
Method: Instrument parameters: Max. Concentration: 9000 particles/mL, No. containers: 1, Sensor Range: Summation, Lower Detection Limit: 0.5 μm, Flow Rate: 30 mL/min, No. Analysis pulls: 4, Time between pulls: 1 sec, Pull volume: 10 mL, Tare Volume: 1 mL, Prime volume: 1 mL, Include First Pull: Not Selected.
Vortexed for 5-10 minutes and sonicated in a water batch for 1 minute.
Method: Filled a plastic bottle with filtered (0.22 μm) 0.1% w/w SDS solution and analyzed the Background.

[4] = methanol/water 15/85 (v/v), 37° C., pH 7, 75 rpm, cited from earlier work

SMILES: CC(=O)O[C@H]1C(=O)[C@@]2(C)[C@H]([C@H](OC(=O)c3ccccc3)[C@]3(O)C[C@H](OC(=O)[C@H](O)[C@@H](NC(=O)c4ccccc4)c4ccccc4)C(C)=C1C3(C)C)[C@]1(OC(C)=O)CO[C@@H]1C[C@@H]2O [Paclitaxel nanoparticles lot used in formulas listed in Tabl] [listing 1 of 2 here]
- Particle size, Mean (number-weighted differential distribution) [3]: 0.861 μm
- Particle size, Median (number-weighted differential distribution) [3]: 0.710 μm
- Particle size, Mode (number-weighted differential distribution) [3]: 0.572 μm

SMILES: CC(=O)O[C@@]12CO[C@@H]1C[C@H](O)[C@@]1(C)C(=O)[C@H](O)C3=C(C)[C@@H](OC(=O)[C@H](O)[C@@H](NC(=O)OC(C)(C)C)c4ccccc4)C[C@@](O)([C@@H](OC(=O)c4ccccc4)[C@H]21)C3(C)C [docetaxel nanoparticles, docetaxel]
- dissolution rate, dissolved in 30 minutes ([4]; made by milling): 9%
- dissolution rate, dissolved in 30 minutes ([4]; made by the supercritical carbon dioxide method): 27%

The remaining lines, values ahead:

- transdermal flux of the paclitaxel through the skin (epidermis and dermis) [1]: less than 0.01 μg/cm^2
SMILES: CC(=O)O[C@H]1C(=O)[C@@]2(C)[C@H]([C@H](OC(=O)c3ccccc3)[C@]3(O)C[C@H](OC(=O)[C@H](O)[C@@H](NC(=O)c4ccccc4)c4ccccc4)C(C)=C1C3(C)C)[C@]1(OC(C)=O)CO[C@@H]1C[C@@H]2O [Paclitaxel, paclitaxel]

- Visual observation by light microscopy- Needle shaped crystals observed? ([2]; in Aluminum sulfate 0.1-0.2% in water, @ 7 days, RT): Yes, >5 μm, @
- Visual observation by light microscopy- Needle shaped crystals observed? ([2]; in Ammonium lauryl sulfate 2% in water, @ 3 days, RT): Yes, >5 μm @
- Visual observation by light microscopy- Needle shaped crystals observed? ([2]; in Benzalkonium chloride (50%) 2% in water, @ 7 days & 21 days, RT): No, <5 μm @
- Visual observation by light microscopy- Needle shaped crystals observed? ([2]; in CARBOPOL ULTREZ 10 (with Ammonium hydroxide as neutralizer) 0.5% in water, @ 8 days & 21 days, RT): No, <5 μm, @ 8
- Visual observation by light microscopy- Needle shaped crystals observed? ([2]; in Castor Oil 100%, @ 24 hrs & 9 days, RT): No, <5 μm @ 24
- Visual observation by light microscopy- Needle shaped crystals observed? ([2]; in Dimethicone, 1000 cSt 100%, @ 24 hrs & 6 days, RT): No, <5 μm @ 24
- Visual observation by light microscopy- Needle shaped crystals observed? ([2]; in FOMBLIN HC04 100%, @ 4, 7 & 13 days, RT): No, <5 μm @ 4,
- Visual observation by light microscopy- Needle shaped crystals observed? ([2]; in Hydroxyethyl cellulose 1% in water, @ 7 days, RT): Yes, >5 μm, @
- Visual observation by light microscopy- Needle shaped crystals observed? ([2]; in Hydroxypropyl methylcellulose 1% in water, @ 3 days, RT): Yes, >5 μm @
- Visual observation by light microscopy- Needle shaped crystals observed? ([2]; in Lecithin 1% in water, @ 24 hrs, RT): Yes, >10 μm, @
- Visual observation by light microscopy- Needle shaped crystals observed? ([2]; in Light Mineral Oil NF 100%, @ 3 days, RT & 40 C.): No, <5 μm @ 3
- Visual observation by light microscopy- Needle shaped crystals observed? ([2]; in Magnesium nitrate 5% in water, @ 3 days, RT): Yes, >5 μm @
- Visual observation by light microscopy- Needle shaped crystals observed? ([2]; in Mannitol 5% in water, @ 7 days, RT): Yes, >5 μm, @
- Visual observation by light microscopy- Needle shaped crystals observed? ([2]; in Mineral Oil USP (heavy) 100%, @ 3 days, RT & 40 C.): No, <5 μm @ 3
- Visual observation by light microscopy- Needle shaped crystals observed? ([2]; in PEG 400 10% in water, @ 22 days, RT & 60 C.): Yes, >5 μm @ 22
- Visual observation by light microscopy- Needle shaped crystals observed? ([2]; in Poloxamer 188 2% in water, @ 7 days, RT): Yes, >5 μm @ 7
- Visual observation by light microscopy- Needle shaped crystals observed? ([2]; in Poloxamer 407 2% in water, @ 5 & 7 days, RT): No, <5 μm @
- Visual observation by light microscopy- Needle shaped crystals observed? ([2]; in Polyoxyl 40 Hydrogenated Castor Oil (KOLLIPHOR RH40) 1% in water, @ 6 days, RT): Yes, <5 μm @ 6
- Visual observation by light microscopy- Needle shaped crystals observed? ([2]; in Polysorbate 80 0.5% in Saline, @ 7 days, RT & 60 C.): Yes, >5 μm @
- Visual observation by light microscopy- Needle shaped crystals observed? ([2]; in Polysorbate 80 0.5% in water, @ 22 days, RT & 60 C.): Yes, <5 μm @ 22
- Visual observation by light microscopy- Needle shaped crystals observed? ([2]; in Povidone 1% in water, @ 7 days & 21 days, RT): Yes, <5 μm @ 7
- Visual observation by light microscopy- Needle shaped crystals observed? ([2]; in Proline 3% in water, @ 7 days, RT): Yes, >5 μm, @
- Visual observation by light microscopy- Needle shaped crystals observed? ([2]; in Purified Water 100%, @ 5 days, RT & 60 C.): Yes, >5 μm, @ 5
- Visual observation by light microscopy- Needle shaped crystals observed? ([2]; in ST-Cyclomethicone 5 NF 100%, @ 24 hrs & 13 days, RT): No, <5 μm @ 24
- Visual observation by light microscopy- Needle shaped crystals observed? ([2]; in Saline 0.9% NaCl in water, @ 7 days, RT & 60 C.): Yes, >10 μm, @
- Visual observation by light microscopy- Needle shaped crystals observed? ([2]; in Sodium lauryl sulfate 2% in water, @ 7 days, RT): Yes, >5 μm, @
- Visual observation by light microscopy- Needle shaped crystals observed? ([2]; in Sodium phosphate monobasic 0.75% in water, @ 7 days, RT): Yes, >5 μm, @
- Visual observation by light microscopy- Needle shaped crystals observed? ([2]; in Sorbitol 5% in water, @ 7 days, RT): Yes, >5 μm, @
- Visual observation by light microscopy- Needle shaped crystals observed? ([2]; in Vitamin E TPGS 0.5% in water, @ 6 days, RT): Yes, <5 μm @ 6
- Visual observation by light microscopy- Needle shaped crystals observed? ([2]; in Zinc acetate […] in water, @ 7 days, RT): Yes, >5 μm, @
SMILES: CC(=O)O[C@H]1C(=O)[C@@]2(C)[C@H]([C@H](OC(=O)c3ccccc3)[C@]3(O)C[C@H](OC(=O)[C@H](O)[C@@H](NC(=O)c4ccccc4)c4ccccc4)C(C)=C1C3(C)C)[C@]1(OC(C)=O)CO[C@@H]1C[C@@H]2O [Paclitaxel nanoparticles, paclitaxel]

- Particle size, Mean (number-weighted differential distribution) [3]: 0.83 μm
SMILES: CC(=O)O[C@H]1C(=O)[C@@]2(C)[C@H]([C@H](OC(=O)c3ccccc3)[C@]3(O)C[C@H](OC(=O)[C@H](O)[C@@H](NC(=O)c4ccccc4)c4ccccc4)C(C)=C1C3(C)C)[C@]1(OC(C)=O)CO[C@@H]1C[C@@H]2O [Paclitaxel nanoparticles lot used in formulas listed in Tabl] [listing 2 of 2 here]
